These results are taken from ChEMBL document CHEMBL4431347, “Synthesis and biological evaluation of novel (E)-N'-(2,3-dihydro-1H-inden-1-ylidene) benzohydrazides as potent LSD1 inhibitors” (Bioorg Med Chem Lett, 2016).

As usually defined, the IC50 is the point on the concentration scale where inhibition reaches its midpoint.

Assay [1] has as its system SMMC-7721. In words: Antiproliferative activity against human SMMC7721 cells over-expressing LSD1 assessed as reduction in cell viability measured after 96 hrs by MTT assay. To be noted: SMMC-7721, 96 h.
Assay [2] relates to PC-3. In words: Antiproliferative activity against human PC3 cells over-expressing LSD1 assessed as reduction in cell viability measured after 96 hrs by MTT assay. To be noted: PC-3, 96 h. (Tetrazolium dyes change colour on reduction, which living cells bring about.)
The subject of assay [3] is A549. In words: Antiproliferative activity against human A549 cells over-expressing LSD1 assessed as reduction in cell viability measured after 96 hrs by MTT assay. To be noted: A549, 96 h.
The subject of assay [4] is NCI-H1299. In words: Antiproliferative activity against human NCI-H1299 cells over-expressing LSD1 assessed as reduction in cell viability measured after 96 hrs by MTT assay. To be noted: NCI-H1299, 96 h.
Assay [5] relates to MDA-MB-231. In words: Antiproliferative activity against human MDA-MB-231 cells over-expressing LSD1 assessed as reduction in cell viability measured after 96 hrs by MTT assay. To be noted: MDA-MB-231, 96 h.
Assay [6] deals with A2780. In words: Antiproliferative activity against human A2780 cells over-expressing LSD1 assessed as reduction in cell viability measured after 72 hrs by MTT assay. To be noted: A2780, 72 h.
In assay [7] the test system is HCT-116. In words: Antiproliferative activity against human HCT116 cells over-expressing LSD1 assessed as reduction in cell viability measured after 96 hrs by MTT assay. Particulars: HCT-116, 96 h.
Assay [8] relates to DU-145. In words: Antiproliferative activity against human DU145 cells over-expressing LSD1 assessed as reduction in cell viability measured after 96 hrs by MTT assay. Particulars: DU-145, 96 h.
In assay [9] the test system is MCF7. In words: Antiproliferative activity against human MCF7 cells over-expressing LSD1 assessed as reduction in cell viability measured after 72 hrs by MTT assay. Particulars: MCF7, 72 h.
Assay [10] deals with NCI-H1299. In words: Antiproliferative activity against human NCI-H1299 cells over-expressing LSD1 assessed as reduction in cell viability measured after 72 hrs by MTT assay. To be noted: NCI-H1299, 72 h.
In assay [11] the test system is SMMC-7721. In words: Antiproliferative activity against human SMMC7721 over-expressing LSD1 cells assessed as reduction in cell viability measured after 72 hrs by MTT assay. Particulars: SMMC-7721, 72 h.
In assay [12] the test system is A549. In words: Antiproliferative activity against human A549 cells over-expressing LSD1 assessed as reduction in cell viability measured after 72 hrs by MTT assay. To be noted: A549, 72 h.
In assay [13] the test system is A2780. In words: Antiproliferative activity against human A2780 cells over-expressing LSD1 assessed as reduction in cell viability measured after 96 hrs by MTT assay. To be noted: A2780, 96 h.
Assay [14] has as its system MCF7. In words: Antiproliferative activity against human MCF7 cells over-expressing LSD1 assessed as reduction in cell viability measured after 96 hrs by MTT assay. To be noted: MCF7, 96 h.
In assay [15] the test system is DU-145. In words: Antiproliferative activity against human DU145 cells over-expressing LSD1 assessed as reduction in cell viability measured after 72 hrs by MTT assay. To be noted: DU-145, 72 h.
Assay [16] concerns MDA-MB-231. In words: Antiproliferative activity against human MDA-MB-231 cells over-expressing LSD1 assessed as reduction in cell viability measured after 72 hrs by MTT assay. Particulars: MDA-MB-231, 72 h.
Assay [17] relates to HCT-116. In words: Antiproliferative activity against human HCT116 cells over-expressing LSD1 assessed as reduction in cell viability measured after 72 hrs by MTT assay. Particulars: HCT-116, 72 h.
Assay [18] relates to PC-3. In words: Antiproliferative activity against human PC3 cells over-expressing LSD1 assessed as reduction in cell viability measured after 72 hrs by MTT assay. To be noted: PC-3, 72 h.

`C/C(=N\NC(=O)c1cccc(S(=O)(=O)N2CCOCC2)c1)c1cc(Cl)ccc1O`: the IC50 amounted to 5360 nM in the assay with SMMC-7721 [1]; 4450 nM in the assay on PC-3 [2]; 830 nM in the assay with A549 [3]; 1730 nM with NCI-H1299 [4]; 750 nM in the assay on MDA-MB-231 [5]; 2140 nM in the assay with A2780 [6]. The IC50 with HCT-116 [7] came out at 330 nM; in the assay on DU-145 [8], 620 nM; with MCF7 [9], 440 nM; with NCI-H1299 [10] it was 3010 nM; in the assay with SMMC-7721 [11], 15800 nM; in the assay on A549 [12], 2690 nM. Further, the IC50 in the assay on A2780 [13] came to 770 nM; in the assay with MCF7 [14] it was 190 nM; with DU-145 [15], 13100 nM; in the assay with MDA-MB-231 [16] it was 1400 nM; in the assay with HCT-116 [17], 650 nM; in the assay with PC-3 [18] it was 19700 nM.
On to `O=C(N/N=C1\CCc2cccc(O)c21)c1cccc(S(=O)(=O)N2CCOCC2)c1`, for which the IC50 in the assay on SMMC-7721 [1] turned out to be 1340 nM; in the assay on PC-3 [2], 1000 nM; in the assay on A549 [3] it was 390 nM; in the assay on NCI-H1299 [4], 790 nM; with MDA-MB-231 [5] it was 410 nM; with A2780 [6], 810 nM. Moreover, the IC50 with HCT-116 [7] turned out to be 250 nM; in the assay on DU-145 [8], 220 nM; with MCF7 [9], 300 nM; in the assay on NCI-H1299 [10], 2010 nM; in the assay with SMMC-7721 [11], 2960 nM; with A549 [12], 920 nM. For the same molecule, the IC50 in the assay with A2780 [13] was found to be 340 nM; in the assay with MCF7 [14] it was 220 nM; with DU-145 [15] it was 2490 nM; in the assay on MDA-MB-231 [16] it was 680 nM; in the assay on HCT-116 [17], 360 nM; in the assay with PC-3 [18] it was 3110 nM.
In the case of `O=C(N/N=C1\CCc2c(Cl)ccc(O)c21)c1cccc(S(=O)(=O)N2CCOCC2)c1`, the IC50 in the assay with SMMC-7721 [1] was 1220 nM; with PC-3 [2], 760 nM; in the assay on A549 [3], 400 nM; with NCI-H1299 [4], 980 nM; in the assay on MDA-MB-231 [5] it was 460 nM; in the assay on A2780 [6], 1130 nM. Also, the IC50 in the assay on HCT-116 [7] was 270 nM; in the assay on DU-145 [8], 180 nM; in the assay on MCF7 [9] it was 410 nM; in the assay on NCI-H1299 [10], 3330 nM; in the assay with SMMC-7721 [11], 3160 nM; with A549 [12], 780 nM. The half-inhibitory concentration (IC50) in the assay with A2780 [13] was determined as 790 nM; in the assay on MCF7 [14], 300 nM; in the assay on DU-145 [15], 2950 nM; in the assay with MDA-MB-231 [16], 710 nM; in the assay on HCT-116 [17] it was 480 nM; with PC-3 [18] it was 2450 nM.
